Source: patent US20160264602A1, “MANUFACTURING METHOD OF SILATRANE WITH THIOL GROUP AND PRESERVATION METHOD THEREOF” (NATIONAL CHUNG CHENG UNIVERSITY, priority 2015, published 2016)

Assays:
[1] = Tests of preserving method: MPS dissolution and self-assembly of gold nanoparticles on MPS-modified glass substrate; format: physicochemical
Method: Performing the tests of three preserving methods that preserve MPS under atmospheric condition, under nitrogen and in organic solvent.
Most silane molecules in general are placed in a brown bottle and stored at 4° C. To investigate the preservation conditions for MPS, the efficiency of the self-assembly reaction of gold nanoparticles on the MPS-modified substrate is used as an indirect indicator. There are two advantages by this approach. First, gold nanoparticles have a characteristic surface plasmon resonance band which can be easily observed in a visible light spectrum and its absorbance is related to the surface coverage of the nanoparticles modified on the surface of the substrate. Second, the peak width of the surface plasmon resonance band is related to the uniformity of the gold nanoparticles distributed on the surface of the substrate. In the present study, gold nanoparticles with 13 nm in diameter are chosen, and the characteristic absorption peak is about 530 nm. After synthesis, purified and dried MPS are separately stored under atmospheric condition at 4° C. and in a brown bottle at room temperature under nitrogen.
If the purified MPS is dissolved in organic solvent and then preserved under atmospheric condition and room temperature without avoiding light, the activity of the sample can be preserved for at least 1 year and 6 months (ex. 1 year and 7 months) (referring to FIG. 3(a)).
The activity of the sample is tested with the self-assembly reaction of gold nanoparticles on the surface of the substrate treated by the sample and then observed by visible light spectroscopy and scanning electron microscopy. The results are shown in FIG. 4(a) and FIG. 4(b) wherein, all experiments are performed by immersing the substrate in a methanol solution of MPS and then modifying gold nanoparticles on the treated substrate for 30 minutes.

[2] = Solubility of MPS in DMSO as time passes after manufacture; format: physicochemical
Method: No matter what kind of foregoing method, the product must be dissolved in organic solvent within 30 minutes. The solubility of MPS in aqueous phase or organic phase solvents will decrease as time passes.

Structure (SMILES): SCCC[Si]12OCCN(CCO1)CCO2 [MPS, (3-mercaptopropyl)silatrane]
- dissolution of preserved sample ([1]; purified and dried MPS in brown bottle at room temperature under nitrogen, after 5 weeks): cannot be dissolved
- dissolution of preserved sample ([1]; purified and dried MPS under atmospheric condition at 4° C., after 3 weeks): cannot be dissolved in any solvent
- time for which MPS can be preserved ([1]; traditional nitrogen preservation method under dark condition): about two
- solubility of MPS in dimethyl sulfoxide (DMSO) ([2]; after 1 week): about 40%
- solubility of MPS in dimethyl sulfoxide (DMSO) ([2]; after 30 minutes): about 99%
- solubility of MPS in dimethyl sulfoxide (DMSO) ([2]; after 1 day): about 90%
